These results are taken from paper PMC9706920, “Aryloxypropanolamine targets amyloid aggregates and reverses Alzheimer-like phenotypes in Alzheimer mouse models” (Alzheimer's Research & Therapy, 2022).

The target of one data set is T1, CYP 2D6 (Homo sapiens, UniProt P10635).
T1 construct: contained human liver microsomes (0.25 mg/ml); from tissue; host or cells: human liver microsomes
Kind of data set: CYP450 inhibition assay, 2D6. It is filed as in vitro ADME. The note with it: YIAD002 10 μM, human liver microsomes; weak or no inhibition; read-out: CYP 2D6 inhibition, IC50 (inhibition criteria). The protocol:
(§1) Incubation mixtures for Cytochrome P450s (CYPs) inhibition assay contained human liver microsomes (0.25 mg/ml), 0.1 M phosphate buffer (pH 7.4), 10 μM of YIAD002, and an enzyme substrate cocktail (phenacetin 50 μM, diclofenac 10 μM, S-mephenytoin 100 μM, dextromethorphan 5 μM, and midazolam 2.5 μM). The mixture was pre-incubated at 37°C for 5 min and 1 mM NAPDH was added to initiate reactions. After 15 min of incubation, acetonitrile with terfenadine was added to stop reactions and microsomal solutions were centrifuged at 14,000 rpm at 4°C for 5 min. For LC-MS/MS analysis, supernatants were injected on a Kinetex C18 column (2.1 × 100 mm, 2.6 μm particle size, Phenomenex, USA). The composition of the mobile phase was 0.1% formic acid in water (A) and 0.1% formic acid in acetonitrile (B).

Data set [1] in a line: Observation of adverse effects in the current studies.
The nature of a further data set: Plasma stability, rat. It is filed as in vitro ADME. The note with it: 10 μM, 37°C, vs 0 min. The protocol:
To assess the plasma stability of YIAD002, […] rat plasma and incubated at 37°C for the following time points: 0, 30, and 120 min. At the end of incubation, acetonitrile with chlorpropamide was added to stop reactions. The solutions were centrifuged at 14,000 rpm at 4°C for 5 min and the supernatant was analyzed with LC-MS/MS. High performance liquid chromatography was carried out on a Kinetex C18 column (2.1 × 100 mm, 2.6 μm particle size, Phenomenex, USA). The composition of the mobile phase was 0.1% formic acid in water (A) and 0.1% formic acid in acetonitrile (B).

The next data set in a line: Plasma stability, human. It is filed as in vitro ADME. The note with it: 10 μM, 37°C, vs 0 min. The protocol:
To assess the plasma stability of YIAD002, YIAD002 stock was dissolved at a concentration of […] in DMSO. 5 μL of YIAD002 stock was added to 195 μL of human plasma or 195 μL of rat plasma and incubated at 37°C for the following time points: 0, 30, and 120 min. At the end of incubation, acetonitrile with chlorpropamide was added to stop reactions. The solutions were centrifuged at 14,000 rpm at 4°C for 5 min and the supernatant was analyzed with LC-MS/MS. High performance liquid chromatography was carried out on a Kinetex C18 column (2.1 × 100 mm, 2.6 μm particle size, Phenomenex, USA). The composition of the mobile phase was 0.1% formic acid in water (A) and 0.1% formic acid in acetonitrile (B).

A further data set has as its target T2, CYP 3A4 (Homo sapiens, UniProt P08684).
T2 construct: contained human liver microsomes (0.25 mg/ml); from tissue; host or cells: human liver microsomes
As to the kind of experiment: CYP450 inhibition assay, 3A4. It counts as in vitro ADME. The note with it: YIAD002 10 μM, human liver microsomes; weak or no inhibition; read-out: CYP 3A4 inhibition, IC50 (inhibition criteria). The protocol: as §1

Another data set deals with T3, Aβ(1–42) aggregates (Homo sapiens, UniProt P05067).
T3 construct: made in house; host or cells: chemical synthesis (Fmoc solid phase peptide synthesis)
As to the kind of experiment: SDS-PAGE with PICUP and silver staining. It is filed as biochemical. The note with it: 500 μM compound, aggregated Aβ(1–42). The protocol: SDS-PAGE with photo-induced cross-linking of unmodified proteins (PICUP) and silver staining was used to evaluate the disaggregating effects of YIAD001 and YIAD002 by visualizing the size distributions and band intensity of Aβ(1–42). Samples were prepared under the same conditions as the Aβ(1–42) disaggregation ThT fluorescence assay. Amyloid proteins in the samples from the aforementioned disaggregation assay were subjected to cross-linking, initiated by irradiation (three exposures, each for 1 second) in the presence of tris(2,2′-bipyridyl)dichlororuthenium(II) hexahydrate (Ru(Bpy)) (1 mM) and 1 μL of ammonium persulfate (20 mM). Reactions were immediately quenched with β-mercaptoethanol and boiled for 5 min at 95°C. After cross-linking the samples, we separated amyloid species by SDS-PAGE on a 15% tris-tricine gel and performed silver staining according to the PlusOne Silver Staining kit protocol (GE Healthcare, USA).

The next data set has as its target T4, CYP 1A2 (Homo sapiens, UniProt P05177).
T4 construct: […]; from tissue; host or cells: human liver microsomes
T4 sequence (P05177 1-516): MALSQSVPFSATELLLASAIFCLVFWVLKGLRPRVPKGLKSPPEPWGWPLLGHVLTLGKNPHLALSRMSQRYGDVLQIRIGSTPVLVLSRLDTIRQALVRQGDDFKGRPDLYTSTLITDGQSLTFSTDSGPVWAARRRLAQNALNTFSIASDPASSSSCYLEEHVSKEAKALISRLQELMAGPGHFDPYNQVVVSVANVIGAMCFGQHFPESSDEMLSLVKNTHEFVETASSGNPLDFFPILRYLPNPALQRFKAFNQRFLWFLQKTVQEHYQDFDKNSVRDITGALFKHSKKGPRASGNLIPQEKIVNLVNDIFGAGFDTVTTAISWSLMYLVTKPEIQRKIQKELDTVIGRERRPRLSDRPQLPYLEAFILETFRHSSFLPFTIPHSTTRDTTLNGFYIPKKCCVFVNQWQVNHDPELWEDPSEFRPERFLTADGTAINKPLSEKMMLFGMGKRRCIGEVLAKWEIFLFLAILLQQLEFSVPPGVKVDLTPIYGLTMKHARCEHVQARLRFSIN
Kind of data set: CYP450 inhibition assay, 1A2. The note with it: YIAD002 10 μM, human liver microsomes; weak or no inhibition; read-out: CYP 1A2 inhibition, IC50 (inhibition criteria). It is filed as in vitro ADME. The protocol:
as §1

For the next data set, the target named is α-synuclein aggregates (Homo sapiens, UniProt P37840). Kind of data set: ThT dissociation assay against α-synuclein aggregation. It counts as biochemical. The note with it: α-synuclein 35 μM pre-aggregated 3 days, compound additional 3 days. The protocol: [picture] Figure S5. ThT dissocation assay against α-synuclein aggregation. Dissociative effects of YIAD001 and YIAD002 against α-synuclein aggregation were evaluated using ThT fluorescence. α-synuclein (35 μM) was pre-aggregated for 3 days. YIAD001 and YIAD002 were added to and co-incubated with pre-aggregated samples for an additional 3 days. Aggregation time for α-synuclein is indicated as ‘+’ for 3 days and ‘++’ for 6 days. All fluorescence intensities were normalized and statistically compared to α-synuclein-only 3 days (+) control (100%). One-way analysis of variance followed by Bonferroni’s post-hoc comparisons tests were performed in all statistical analyses (****P < 0.0001). Data are presented as mean ± SEM. Abbreviations: Aggr. = Aggregation, Cpd. = Compound.

T3 sequence (P05067 672-713 limits assumed): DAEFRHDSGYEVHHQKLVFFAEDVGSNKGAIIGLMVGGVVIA
T1 sequence (P10635 whole entry): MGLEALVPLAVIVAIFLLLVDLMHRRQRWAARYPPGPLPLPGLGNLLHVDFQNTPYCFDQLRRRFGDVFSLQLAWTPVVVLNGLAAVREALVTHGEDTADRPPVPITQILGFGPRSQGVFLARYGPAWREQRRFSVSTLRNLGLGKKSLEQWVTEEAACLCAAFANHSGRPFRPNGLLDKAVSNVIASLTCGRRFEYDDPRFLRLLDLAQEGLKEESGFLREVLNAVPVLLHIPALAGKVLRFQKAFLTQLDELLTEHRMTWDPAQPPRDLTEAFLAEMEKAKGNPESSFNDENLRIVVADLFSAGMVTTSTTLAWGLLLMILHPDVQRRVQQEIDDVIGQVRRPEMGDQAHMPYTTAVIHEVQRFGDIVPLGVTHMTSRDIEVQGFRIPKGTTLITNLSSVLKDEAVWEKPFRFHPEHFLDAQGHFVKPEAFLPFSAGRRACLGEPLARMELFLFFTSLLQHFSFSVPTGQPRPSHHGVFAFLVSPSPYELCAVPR
T2 sequence (P08684 whole entry): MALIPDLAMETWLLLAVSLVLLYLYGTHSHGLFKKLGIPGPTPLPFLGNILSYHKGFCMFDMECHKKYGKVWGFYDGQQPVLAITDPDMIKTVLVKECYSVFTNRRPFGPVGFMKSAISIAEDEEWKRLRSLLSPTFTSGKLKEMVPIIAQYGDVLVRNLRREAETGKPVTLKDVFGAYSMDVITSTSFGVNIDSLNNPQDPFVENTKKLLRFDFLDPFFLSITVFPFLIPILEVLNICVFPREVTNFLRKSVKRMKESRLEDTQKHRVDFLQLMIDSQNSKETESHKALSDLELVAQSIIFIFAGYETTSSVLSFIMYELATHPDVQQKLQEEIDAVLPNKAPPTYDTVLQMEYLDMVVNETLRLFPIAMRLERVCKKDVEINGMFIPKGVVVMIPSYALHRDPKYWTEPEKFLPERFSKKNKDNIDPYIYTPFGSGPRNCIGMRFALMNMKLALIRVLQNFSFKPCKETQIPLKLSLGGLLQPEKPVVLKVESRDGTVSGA

On to `CCC(C)(C)c1ccc(OCC(O)CN2CCCC2)c(C(C)(C)CC)c1.Cl` (centres unmarked) [YIAD002, 1-(3-(2,4-Di-tert-pentylphenoxy)-2-hydroxypropyl)pyrrolidin-1-ium chloride], for which the IC50 at CYP 2D6, at CYP 3A4 and at CYP 1A2 was above 10 µM in each case. Further, the “Adverse effects of toxicity” value in data set [1] is “not observed”. In addition, the “Compound remaining in rat plasma” value is on record as 94.5% in “Plasma stability, rat” (30 min) and 87.7% in “Plasma stability, rat” (120 min). The “Compound remaining in human plasma” value in “Plasma stability, human” (30 min) worked out at 96.3%; in “Plasma stability, human” (120 min), 92.6%. In addition, the “Size distribution of Aβ(1–42) bands (fibrils, monomers)” value at Aβ(1–42) aggregates is “reduced fibrils and increased monomers”. In addition, the “Interaction with α-synuclein aggregates (ThT dissociation)” value on α-synuclein aggregates was “did not interact with α-synuclein aggregates”.
`CCC(C)(C)c1ccc(OCC(O)CN2CCOCC2)c(C(C)(C)CC)c1.Cl` (centres unmarked) [YIAD001, 4-(3-(2,4-Di-tert-pentylphenoxy)-2-hydroxypropyl)morpholin-4-ium chloride]: at Aβ(1–42) aggregates, the “Size distribution of Aβ(1–42) bands (fibrils, monomers)” value was “reduced fibrils and increased monomers”.
